According to patent US6008251A, “Retinoid-like compounds” (Bristol-Myers Squibb Company, priority 1998, dated 1999):

Tests used:
HL60 cells = assay: Differentiation and apoptosis of HL 60 cells (NBT staining); assay type: cell-based; conditions: for EC50 (culture day necessary to convert cells into a differentiated or apoptosed phenotype): 1 μM compound, culture up to 9 days, NBT staining
Experimental: HL 60 cells were evaluated for the effect of retinoic acid and the compound of Example 1 on both differentiation and apoptosis end points by the method described in Molecular and Cellular Biology, 15, 3540-3551 (1995). Cells were grown in culture for times up to 9 days in the presence of 1 μM all-trans retinoic acid (t-RA) or 1 μM compound of Example 1. At the end of each day of the culture period, cells were washed and stained with NBT (nitro blue tetrazolium) and counted.

[1] = system: squamous-cell carcinoma of the head and neck; conditions: cited from earlier work

Row | SMILES | EC50 (culture day necessary to convert cells into a differentiated or apoptosed phenotype) (HL60 cells) | activity in this assay compared with t-RA (in words) (HL60 cells; 1 μM, compared with 1 μM t-RA) | percentage of either differentiated or apoptosed HL60 cells (HL60 cells; 1 μM, day 1) | percentage of either differentiated or apoptosed HL60 cells (HL60 cells; 1 μM, day 2) | percentage of either differentiated or apoptosed HL60 cells (HL60 cells; 1 μM, day 3) | percentage of either differentiated or apoptosed HL60 cells (HL60 cells; 1 μM, day 4) | percentage of either differentiated or apoptosed HL60 cells (HL60 cells; 1 μM, day 5) | percentage of either differentiated or apoptosed HL60 cells (HL60 cells; 1 μM, day 6) | percentage of either differentiated or apoptosed HL60 cells (HL60 cells; 1 μM, day 7) | percentage of either differentiated or apoptosed HL60 cells (HL60 cells; 1 μM, day 8) | percentage of either differentiated or apoptosed HL60 cells (HL60 cells; 1 μM, day 9) | prevention of second primary tumors (in words) [1]
1 | CC1(C)C(=O)C(C)(C)c2cc(C(=O)Nc3ccc(C(=O)O)cc3)ccc21 [Example 1, 4(1',1',3',3'-Tetramethyl-2'-keto-indan-5'-carboxamido)benzoicacid] | 4.0 days | comparable to t-RA | 11% | 22% | 40% | 50% | 61% | 78% | 85% | 95% | 93% | –
2 | CC1=C(/C=C/C(C)=C/C=C/C(C)=C\C(=O)O)C(C)(C)CCC1 [Isotretinoin] | – | – | – | – | – | – | – | – | – | – | – | useful in prevention of second primary tumors
3 | CC1=C(/C=C/C(C)=C/C=C/C(C)=C/C(=O)O)C(C)(C)CCC1 [all-trans retinoic acid] | 3.2 days | – | 21% | 23% | 48% | 80% | 95% | 96% | 97% | 98% | 97% | –
